Experiments:
[1] = xanthine oxidase/acetaldehyde spectrophotometric free radical scavenging assay; type: biochemical
Description: The scavenging of free super oxide radicals is quantitated spectrometrically and expressed in terms of percentage of radicals scavenged. Assays were performed with 1% (w/v) and 0.1% (w/v) dilutions of the dried extract, which yielded up to 100% scavenging activity and up to 99% scavenging activity respectively.

[2] = tested on: hen's-egg chorioallantoic membrane (CAM); test: hen's-egg chorioallantoic membrane (CAM) irritation model with 15% lactic acid as standard irritant; conditions: oenothein B extract at 1% (weight to volume) dilution; applied before the irritant (15% lactic acid), simulating prophylactic use
Description: In the hen's-egg chorioallantoic membrane (CAM) model, in which the CAM is treated with 15% lactic acid as a standard irritant, the development of manifestations of membrane irritation were tracked and scored according to published methods for assessing irritancy. A sample of the oenothein B extract from Canadian Willow herb described in Example 1 was tested at a 1% (weight to volume) dilution for activity in the CAM model.

With oenothein B the “scavenging activity (percentage of superoxide radicals scavenged)” value ([1]; 0.1% (w/v) dilution of the dried extract) was “up to 99%”, the “scavenging activity (percentage of superoxide radicals scavenged)” value ([1]; 1% (w/v) dilution of the dried extract) was “up to 100%” and the decrease in irritation [2] was “up to 70%”.
